Laboratory results published in patent publication US9718836B2 (priority 2014, dated 2017).
“And” between values parts separate entries of the source, which are not always exact repeats. Equal entries are not always repeated.

Experiments:
[1] = system: antibodies in the antisera; type: binding, Balb/c mice
[2] = system: antibodies in the antisera; type: binding, Balb/c mice; remark: listed apart in the source

Row | Compound | IC50 value of the antibody for the aflatoxin biosynthetic precursor ST [1] | Absorbance [2]
1 | COc1cc2c(c3oc4cccc(O)c4c(=O)c13)[C@@H]1C=CO[C@@H]1O2 [aflatoxin biosynthetic precursor ST, Sterigmatocystin] | 0.41 ng/mL | –
2 | aflatoxin B2 | – | 1.08 and 1.06 and 0.99 and 1.07 and 1.01 and 1.02 and 1.04
3 | aflatoxin G1 | – | 1.07 and 1.05 and 1.01 and 0.98 and 1.04 and 1.09 and 1.11
4 | aflatoxin G2 | – | 1.03 and 1.04 and 1.05 and 1.01 and 1.09 and 1.02 and 1.10
